Laboratory results published in PubChem BioAssay (NCI).
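The compound was tested at five concentrations on cells cultured in 96-well plates, with a 48-hour exposure period. The concentration for 50% growth inhibition is given as GI50. TGI is the concentration that stops growth completely.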

Experiments:
Assay in all cases: DTP human tumour cell line panel, 48 h
[1] = test system: RXF 393 renal
[2] = test system: SK-MEL-2 melanoma
[3] = test system: NCI-H460 lung
[4] = test system: SNB-19 CNS
[5] = test system: T-47D breast
[6] = test system: MOLT-4 leukemia
[7] = test system: HOP-62 NSCLC
[8] = test system: SN12C renal
[9] = test system: M14 melanoma
[10] = test system: 786-0 renal
[11] = test system: NCI/ADR-RES ovarian
[12] = test system: TK-10 renal
[13] = test system: OVCAR-3 ovarian
[14] = test system: HCT-15 colon
[15] = test system: MCF7 breast
[16] = test system: COLO 205 colon
[17] = test system: ACHN renal
[18] = test system: SK-MEL-28 melanoma
[19] = test system: NCI-H23 lung
[20] = test system: MDA-MB-435
[21] = test system: K-562 leukemia
[22] = test system: PC-3 prostate
[23] = test system: HOP-92 NSCLC
[24] = test system: SF-539 CNS
[25] = test system: MDA-MB-231 breast
[26] = test system: CAKI-1 renal
[27] = test system: UACC-62 melanoma
[28] = test system: SK-MEL-5 melanoma
[29] = test system: NCI-H226 lung
[30] = test system: SW-620 colon
[31] = test system: HS 578T breast
[32] = test system: KM12 colon
[33] = test system: OVCAR-5 ovarian
[34] = test system: HL-60(TB) leukemia
[35] = test system: UO-31 renal
[36] = test system: SF-268 CNS
[37] = test system: SF-295 CNS
[38] = test system: A549 NSCLC
[39] = test system: NCI-H522 lung
[40] = test system: OVCAR-8 ovarian
[41] = test system: IGROV1 ovarian
[42] = test system: LOX IMVI melanoma
[43] = test system: DU-145 prostate
[44] = test system: EKVX NSCLC
[45] = test system: UACC-257 melanoma
[46] = test system: HCC-2998 colon
[47] = test system: U251 CNS
[48] = test system: HT29 colon
[49] = test system: OVCAR-4 ovarian
[50] = test system: RPMI-8226 leukemia
[51] = test system: SK-OV-3 ovarian
[52] = test system: HCT-116 colon
[53] = test system: MALME-3M melanoma
[54] = test system: BT-549 breast
[55] = test system: CCRF-CEM leukemia
[56] = test system: SNB-75 CNS
[57] = test system: SR leukemia
[58] = test system: A498 renal

COc1cc(/C=C2\C[C@H]3[C@@H]4CC=C5C[C@@H](OC(C)=O)CC[C@]5(C)[C@H]4CC[C@]3(C)[C@H]2OC(C)=O)ccc1OCCN1CCCCC1
GI50 [1]: 6.94 µM
TGI [1]: 18.8 µM
GI50 [2]: 20.1 µM
TGI [2]: > 50 µM
GI50 [3]: 15.8 µM
TGI [3]: > 50 µM
GI50 [4]: 46.2 µM
TGI [4]: > 50 µM
GI50 [5]: > 50 µM
TGI [5]: > 50 µM
GI50 [6]: > 50 µM
TGI [6]: > 50 µM
GI50 [7]: 8.96 µM
TGI [7]: 27.1 µM
GI50 [8]: 10.8 µM
TGI [8]: 27.1 µM
GI50 [9]: 2.46 µM
TGI [9]: 10 µM
GI50 [10]: 12.3 µM
TGI [10]: 21.3 µM
GI50 [11]: > 50 µM
TGI [11]: > 50 µM
GI50 [12]: 10.5 µM
TGI [12]: 19.1 µM
GI50 [13]: 18.5 µM
TGI [13]: > 50 µM
GI50 [14]: 7.59 µM
TGI [14]: 15.8 µM
GI50 [15]: 10.6 µM
TGI [15]: 25 µM
GI50 [16]: 16.3 µM
TGI [16]: > 50 µM
GI50 [17]: 9.28 µM
TGI [17]: 16.8 µM
GI50 [18]: 22.5 µM
TGI [18]: > 50 µM
GI50 [19]: > 50 µM
TGI [19]: > 50 µM
GI50 [20]: 14.4 µM
TGI [20]: 44.4 µM
GI50 [21]: 12.8 µM
TGI [21]: 43.2 µM
GI50 [22]: 24.7 µM
TGI [22]: > 50 µM
GI50 [23]: 27.6 µM
TGI [23]: > 50 µM
GI50 [24]: 9.56 µM
TGI [24]: 20.6 µM
GI50 [25]: 11 µM
TGI [25]: 25.4 µM
GI50 [26]: 15.6 µM
TGI [26]: > 50 µM
GI50 [27]: 8.14 µM
TGI [27]: 15 µM
GI50 [28]: 8.16 µM
TGI [28]: 15.5 µM
GI50 [29]: > 50 µM
TGI [29]: > 50 µM
GI50 [30]: 11.2 µM
TGI [30]: > 50 µM
GI50 [31]: 12.1 µM
TGI [31]: 42.8 µM
GI50 [32]: 14.4 µM
TGI [32]: 46.1 µM
GI50 [33]: 23.4 µM
TGI [33]: > 50 µM
GI50 [34]: 40.7 µM
TGI [34]: > 50 µM
GI50 [35]: 11.1 µM
TGI [35]: 29.1 µM
GI50 [36]: 35.7 µM
TGI [36]: > 50 µM
GI50 [37]: 9.57 µM
TGI [37]: 24.1 µM
GI50 [38]: 19.3 µM
TGI [38]: > 50 µM
GI50 [39]: > 50 µM
TGI [39]: > 50 µM
GI50 [40]: 13 µM
TGI [40]: > 50 µM
GI50 [41]: 40 µM
TGI [41]: > 50 µM
GI50 [42]: 9.63 µM
TGI [42]: 18.5 µM
GI50 [43]: 15.2 µM
TGI [43]: 44.4 µM
GI50 [44]: > 50 µM
TGI [44]: > 50 µM
GI50 [45]: 5.77 µM
TGI [45]: 13.6 µM
GI50 [46]: 10.9 µM
TGI [46]: 19.9 µM
GI50 [47]: 8.76 µM
TGI [47]: 16.5 µM
GI50 [48]: 23.2 µM
TGI [48]: > 50 µM

COc1ccc(C2CC(=O)c3c(O)c(OC)c(OC)c(OC)c3O2)cc1O (stereo not drawn)
GI50 [49]: 3.78 µM
TGI [49]: > 100 µM
GI50 [2]: 0.24 µM
TGI [2]: > 100 µM
GI50 [3]: 0.195 µM
GI50 [4]: 0.0833 µM
TGI [4]: > 100 µM
GI50 [50]: 0.286 µM
TGI [50]: > 77.5 µM
GI50 [5]: 19.2 µM
TGI [5]: 77.9 µM
GI50 [6]: 0.105 µM
TGI [6]: > 100 µM
GI50 [7]: 0.377 µM
TGI [7]: > 100 µM
GI50 [8]: 1.1 µM
TGI [8]: > 100 µM
GI50 [9]: 0.0515 µM
TGI [9]: > 100 µM
GI50 [10]: 1.64 µM
TGI [10]: > 100 µM
GI50 [11]: 0.0616 µM
TGI [11]: > 100 µM
GI50 [51]: 0.371 µM
TGI [51]: > 100 µM
GI50 [52]: 0.103 µM
TGI [52]: > 100 µM
GI50 [12]: > 31.4 µM
TGI [12]: > 100 µM
GI50 [13]: 0.0627 µM
TGI [13]: 0.749 µM
GI50 [14]: 0.0459 µM
TGI [14]: > 100 µM
GI50 [15]: 0.124 µM
TGI [15]: > 100 µM
GI50 [16]: 6.63 µM
TGI [16]: 32.5 µM
GI50 [17]: 0.572 µM
TGI [17]: > 100 µM
GI50 [18]: 14.4 µM
TGI [18]: > 100 µM
GI50 [19]: 0.547 µM
TGI [19]: > 100 µM
GI50 [21]: 0.0365 µM
TGI [21]: > 100 µM
GI50 [22]: 0.0642 µM
TGI [22]: > 100 µM
GI50 [23]: 0.518 µM
TGI [23]: 82.4 µM
GI50 [24]: 0.0666 µM
TGI [24]: > 100 µM
GI50 [25]: 0.625 µM
TGI [25]: > 100 µM
GI50 [26]: 0.43 µM
TGI [26]: > 100 µM
GI50 [27]: 0.504 µM
TGI [27]: > 73.7 µM
GI50 [28]: 0.219 µM
TGI [28]: 6.87 µM
GI50 [53]: 32.8 µM
TGI [53]: > 100 µM
GI50 [29]: 14.1 µM
TGI [29]: > 100 µM
GI50 [30]: 0.0418 µM
TGI [30]: > 100 µM
GI50 [31]: 0.0498 µM
TGI [31]: > 100 µM
GI50 [32]: 0.0585 µM
TGI [32]: > 100 µM
GI50 [33]: > 100 µM
TGI [33]: > 100 µM
GI50 [34]: 0.0263 µM
GI50 [35]: 2.18 µM
TGI [35]: > 100 µM
GI50 [54]: 0.0745 µM
TGI [54]: 31.2 µM
GI50 [36]: 0.407 µM
TGI [36]: > 100 µM
GI50 [37]: 0.374 µM
TGI [37]: > 100 µM
GI50 [55]: 0.115 µM
TGI [55]: > 100 µM
GI50 [38]: 0.817 µM
TGI [38]: > 100 µM
GI50 [39]: 0.0386 µM
TGI [39]: 0.775 µM
GI50 [56]: 0.0358 µM
TGI [56]: > 100 µM
GI50 [40]: 0.175 µM
TGI [40]: > 57.1 µM
GI50 [41]: 0.976 µM
TGI [41]: > 100 µM
GI50 [42]: 0.0701 µM
TGI [42]: > 100 µM
GI50 [43]: 0.225 µM
TGI [43]: > 100 µM
GI50 [44]: 0.53 µM
TGI [44]: > 100 µM
GI50 [57]: 0.0467 µM
TGI [57]: > 100 µM
GI50 [46]: 0.999 µM
TGI [46]: > 100 µM
GI50 [47]: 0.191 µM
TGI [47]: > 100 µM
GI50 [58]: 2.34 µM
TGI [58]: 33.2 µM
GI50 [48]: 3.4 µM
TGI [48]: > 64.5 µM

ClCCN(CCCl)c1ccc(CNCCCNCc2ccc(N(CCCl)CCCl)cc2)cc1
TGI [50]: > 100 µM
TGI [9]: > 100 µM
TGI [11]: > 100 µM
TGI [52]: > 100 µM
TGI [12]: 5.25 µM
TGI [16]: 3.29 µM
TGI [18]: 3.18 µM
TGI [22]: 26.5 µM
TGI [23]: 26.6 µM
TGI [25]: 5.37 µM
TGI [26]: 27.2 µM
TGI [29]: 30.3 µM
TGI [30]: > 100 µM
TGI [31]: 7.81 µM
TGI [33]: > 100 µM
TGI [34]: 2.67 µM
TGI [54]: 9.85 µM
TGI [55]: > 100 µM
TGI [38]: > 100 µM
TGI [43]: > 100 µM
TGI [45]: 4.71 µM
TGI [57]: 1.29 µM
TGI [46]: 5.2 µM
TGI [58]: 33.8 µM
